Values of other authors as cited in patent US20230398127A1, “USE OF COMBINED ORAL CONTRACEPTIVES CONTAINING NOMEGESTROL ACETATE AND ESTRADIOL” (THERAMEX HQ UK LIMITED, priority 2020, published 2023).

Target: T1, progesterone receptor (Homo sapiens, UniProt P06401)
T1 sequence (P06401 1-933): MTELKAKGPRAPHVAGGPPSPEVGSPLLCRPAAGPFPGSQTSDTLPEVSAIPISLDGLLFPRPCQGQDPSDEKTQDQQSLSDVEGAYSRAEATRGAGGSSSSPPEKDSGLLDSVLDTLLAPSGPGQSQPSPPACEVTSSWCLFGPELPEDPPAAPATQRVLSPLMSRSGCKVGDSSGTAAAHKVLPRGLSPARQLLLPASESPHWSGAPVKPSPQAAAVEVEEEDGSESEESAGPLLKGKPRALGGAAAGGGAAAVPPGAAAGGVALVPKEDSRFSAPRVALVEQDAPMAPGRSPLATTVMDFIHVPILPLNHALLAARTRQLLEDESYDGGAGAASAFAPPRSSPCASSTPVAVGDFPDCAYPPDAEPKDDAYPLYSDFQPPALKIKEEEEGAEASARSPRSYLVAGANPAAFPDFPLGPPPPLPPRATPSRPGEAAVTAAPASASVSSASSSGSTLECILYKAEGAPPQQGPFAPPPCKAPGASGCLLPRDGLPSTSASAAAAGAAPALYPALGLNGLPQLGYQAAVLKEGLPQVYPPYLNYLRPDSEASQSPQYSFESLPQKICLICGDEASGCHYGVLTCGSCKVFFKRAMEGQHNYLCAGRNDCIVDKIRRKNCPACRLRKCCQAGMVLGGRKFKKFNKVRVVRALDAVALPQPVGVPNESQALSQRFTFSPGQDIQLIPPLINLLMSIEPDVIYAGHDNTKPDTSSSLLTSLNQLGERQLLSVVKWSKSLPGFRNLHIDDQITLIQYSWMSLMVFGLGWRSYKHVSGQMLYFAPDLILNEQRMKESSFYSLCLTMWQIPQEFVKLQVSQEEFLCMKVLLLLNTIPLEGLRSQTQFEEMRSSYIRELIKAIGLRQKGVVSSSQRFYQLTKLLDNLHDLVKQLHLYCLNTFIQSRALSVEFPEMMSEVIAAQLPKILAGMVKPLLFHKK

Compound: CC(=O)O[C@]1(C(C)=O)CC[C@H]2[C@@H]3C=C(C)C4=CC(=O)CC[C@@H]4[C@H]3CC[C@@]21C [nomegestrol acetate, 17α-acetoxy-6-methyl-19-norpregna-4,6-diene-3,20-dione]
- Affinity for the progesterone receptor: strong
